Experimental data from patent US20230089605A1, “USE OF DOXYCYCLINE, RESVERATROL, IVERMECTIN, AND RELATED CHEMICALLY MODIFIED COMPOUNDS TO TREAT OR PREVENT VIRAL INFECTIONS” (Ardestat Biologics, LLC, priority 2021, published 2023).

Target: T1, MMP9 (Homo sapiens, UniProt P14780)
T1 construct: purchased Abcam ab139449
Experiment: MMP9 inhibitor screening assay kit (Fluorometric), Abcam
Type: biochemical
Details: result given in words only
Description: Doxycycline, resveratrol, colchicine, and ivermectin were assessed at the indicated concentrations using the MMP9 Inhibitor Screening Assay Kit (abcam), according to the manufacturer's instructions.
Inhibition of MMP9 was determined using the MMP9 inhibitor screening assay kit (Fluorometric) from Abcam (Cat#ab139449) according to the manufacturer's instructions. Unquenching of a fluorogenic peptide by MMP9 was monitored for 10 minutes in the presence or absence of inhibitory compounds, using a fluorescent microplate reader (Ex/Em=328/420). Reaction velocity (V) in RFU/minute was used to determine the % of remaining enzymatic activity, relative to untreated control, according to the following equation: (Vinhibitor/Vcontrol)×100 (FIG. 2).

T1 sequence (P14780 107-444 limits assumed): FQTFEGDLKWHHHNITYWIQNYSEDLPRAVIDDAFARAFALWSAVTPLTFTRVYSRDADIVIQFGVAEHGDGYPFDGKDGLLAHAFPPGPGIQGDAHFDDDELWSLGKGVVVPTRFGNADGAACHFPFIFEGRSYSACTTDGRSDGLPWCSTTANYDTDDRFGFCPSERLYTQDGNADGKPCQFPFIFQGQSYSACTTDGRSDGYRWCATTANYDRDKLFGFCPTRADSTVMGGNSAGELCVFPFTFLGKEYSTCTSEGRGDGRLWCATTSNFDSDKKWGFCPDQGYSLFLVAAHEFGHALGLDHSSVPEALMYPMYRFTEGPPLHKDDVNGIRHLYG

`Oc1ccc(C=Cc2cc(O)cc(O)c2)cc1` [resveratrol] was tested, and the “inhibition of MMP activity (% of remaining enzymatic activity relative to untreated control)” value (fluorogenic peptide unquenching monitored 10 minutes, FIG. 2) was “inhibited MMP activity but to a much more modest extent compared to doxycycline”.
ivermectin was tested, and the “interference with the MMP-inhibiting effects of doxycycline and resveratrol” value was “has not been shown to interfere with these MMP-inhibiting effects”.
